Laboratory results published in patent publication US20110124608A1, “USE OF 25-HYDROXY VITAMIN D3 TO INCREASE MUSCLE MASS IN MAMMALS” (priority 2007, published 2011).

Experiments:
Format in all cases: in vivo, pig
pigs [1] = assay: Swine growth performance, Study A: pigs fed 25-OH D3 and farrowed to sows fed 25-OH D3
Source text: (§1) Study A. Two treatment groups were used in all studies. The control group contained first-to-fifth parity pigs (sows and progenies) fed rations without 25-OH D3 supplementation. The experimental group was made up of first-to-fifth parity pigs fed rations supplemented with 50 mcg 25-OH D3/kg diet) and farrowed to sows fed rations supplemented with 25-OH D3 since 6 months old. Study A only covered the pre-starter to finisher stage (41-150 days old) for the first to third parities pigs, while it covered the booster to finisher stage (7-150 days old) for the fourth and fifth parity pigs. Study B. Two treatment groups were also used in this study. Pigs were randomly selected from mixed-parity sows fed rations containing no supplemental 25-OH on the same farm. The control group was fed rations without 25-OH D3, whereas the experimental group was fed rations supplemented with 25-OH D3 (50 mcg 25-OH D3/kg diet). Study B covered the pre-starter to finisher stage (41-150 days old). Number of pigs and replicates: There were 8-11 replicates per treatment and 4 pigs per replicate. Randomization and Allotment of pigs: Pigs were grouped according to size and sex and randomly allocated to each treatment. The number of male-replicates for the two treatments were equalized. Rations: The rations involved in all studies were gestating and lactation rations for the sows. Booster, pre-starter, starter, grower and finisher rations were given to the progenies. Feeding: The experimental pigs were fed ad libitum with dry feeds. Booster pigs (sucklings) were fed starting when they were 7 days old. Feeds were placed in a linear trough designed for piglets. For a few days, only a small amount of feed was given to the pigs, but when they were eating, the required amount was always in the feeder. The amounts of feeds were properly weighed and recorded. Pre-starter pigs were fed for 30 days using linear feeders while they were confined in slatted and elevated nursery pens. The grower-finisher pigs were fed using concrete linear feeders for 80 days while they were confined in pens with cement flooring. The following rations were fed to pigs corresponding to their age.
(§2) Other management Practices: All experimental animals were subject to the standard operating procedure in the farm where these studies were conducted. Data Collection The following data were collected: 1. Weights of piglets at 7 days old 2. Weight of piglets at 28 days old 3. Weight of pigs at 41, 70, 100, 130, and 150 days old 4. Feed consumption during the following periods:
Across parities, pigs weaned from 25-OH D3—fed sows were fed 50 μg 25-OH D3/kg diet and those weaned from control sows were fed the control diet (containing no 25-OH D3). Consistently across the three parities, pigs fed 25-OH D3 gained weight faster (a delta average of 3.9 kg) an converted feed to gain (a delta average of 7 points) more efficient than those fed the control diet.

pigs [2] = assay: Swine growth performance, Study B / Example 2: pigs fed 25-OH D3, farrowed to sows fed without 25-OH D3
Source text: as §1, §2
In this study, the pigs that were used were weaned from sows that were not fed 25-OH D3.

pigs [3] = assay: Farm records: pigs weaned from 25-OH D3-fed sows but not fed 25-OH D3; conditions: pigs weaned from 25-OH D3-fed sows but not fed 25-OH D3 (prenatal exposure only)
[4] = across parities, prestarting-to-finishing pigs from 25-OH D3-fed sows, 50 μg 25-OH D3/kg diet
[5] = fifth parity pigs, 41-150-day old, sows fed 25-OH D3, 50 mcg 25-OH D3/kg diet
[6] = fifth parity pigs, 41-150-day old, sows fed 25-OH D3, difference to control
[7] = first parity pigs, 41-to-150-day-old, sows fed 25-OH D3, 50 mcg 25-OH D3/kg diet
[8] = first parity pigs, 41-to-150-day-old, sows fed 25-OH D3, difference to control
[9] = fourth parity pigs, 41-150-old, sows fed 25-OH D3, 50 mcg 25-OH D3/kg diet
[10] = fourth parity pigs, 41-150-old, sows fed 25-OH D3, difference to control
[11] = second parity pigs, 41-to-150-day-old, sows fed 25-OH D3, 50 mcg 25-OH D3/kg diet
[12] = second parity pigs, 41-to-150-day-old, sows fed 25-OH D3, difference to control
[13] = third parity pigs, 41-150-day-old, sows fed 25-OH D3, 50 mcg 25-OH D3/kg diet
[14] = third parity pigs, 41-150-day-old, sows fed 25-OH D3, difference to control
[15] = mixed-parity pigs, 41-to-150-day old, sows fed without 25-OH D3, 50 mcg 25-OH D3/kg diet
[16] = mixed-parity pigs, 41-to-150-day old, sows fed without 25-OH D3, difference to control

## C=C1CC[C@H](O)C/C1=C/C=C1\CCC[C@]2(C)[C@@H]([C@H](C)CCCC(C)(C)O)CC[C@@H]12 [25-OH D3, 25-hydroxy vitamin D3]
Pigs [1]; [4]
  feed to gain conversion, delta average v. control diet: 7 points
  weight gain, delta average v. control diet: 3.9 kg
Pigs [1]; [5]
  Daily wt gain: 0.76 kg
  Feed: Gain: 2.22
  Final body wt: 91.94 kg
  Initial Body wt: 8.66 kg
  Total feed intake: 184.63 kg
  Total wt gain: 83.27 kg
Pigs [1]; [6]
  Daily wt gain, 25-OH D3 v. control (δ): 0.03 kg
  Feed: Gain, 25-OH D3 v. control (δ): 0.00
  Final body wt, 25-OH D3 v. control (δ): 2.51 kg
  Initial Body wt, 25-OH D3 v. control (δ): -0.07 kg
  Total feed intake, 25-OH D3 v. control (δ): 5.04 kg
  Total wt gain, 25-OH D3 v. control (δ): 2.57 kg
Pigs [1]; [7]
  Daily wt gain: 0.72 kg
  Feed: Gain: 2.32
  Final body wt: 87.78 kg
  Initial Body wt: 8.24 kg
  Total feed intake: 184.60 kg
  Total wt gain: 79.55 kg
Pigs [1]; [8]
  Daily wt gain, 25-OH D3 v. control (δ): 0.04 kg
  Feed: Gain, 25-OH D3 v. control (δ): −0.15
  Final body wt, 25-OH D3 v. control (δ): 5.72 kg
  Initial Body wt, 25-OH D3 v. control (δ): 0.64 kg
  Total feed intake, 25-OH D3 v. control (δ): 0.86 kg
  Total wt gain, 25-OH D3 v. control (δ): 5.08 kg
Pigs [1]; [9]
  Daily wt gain: 0.74 kg
  Feed: Gain: 2.07
  Final body wt: 89.57 kg
  Initial Body wt: 8.43 kg
  Total feed intake: 166.93 kg
  Total weight gain: 81.15 kg
Pigs [1]; [10]
  Daily wt gain, 25-OH D3 v. control (δ): 0.01 kg
  Feed: Gain, 25-OH D3 v. control (δ): −0.05
  Final body wt, 25-OH D3 v. control (δ): 1.21 kg
  Initial Body wt, 25-OH D3 v. control (δ): 0.15 kg
  Total feed intake, 25-OH D3 v. control (δ): -1.86 kg
  Total weight gain, 25-OH D3 v. control (δ): 1.06 kg
Pigs [1]; [11]
  Daily wt gain: 0.78 kg
  Feed: Gain: 2.28
  Final body wt: 95.78 kg
  Initial Body wt: 10.56 kg
  Total feed intake: 193.74 kg
  Total wt gain: 85.22 kg
Pigs [1]; [12]
  Daily wt gain, 25-OH D3 v. control (δ): 0.06 kg
  Feed: Gain, 25-OH D3 v. control (δ): −0.04
  Final body wt, 25-OH D3 v. control (δ): 7.34 kg
  Initial Body wt, 25-OH D3 v. control (δ): 1.67 kg
  Total feed intake, 25-OH D3 v. control (δ): 9.25 kg
  Total wt gain, 25-OH D3 v. control (δ): 5.59 kg
Pigs [1]; [13]
  Daily weight gain: 0.76 kg
  Feed: Gain: 2.16
  Final body wt: 92.39 kg
  Initial Body wt: 8.88 kg
  Total feed intake: 179.35 kg
  Total wt gain: 83.51 kg
Pigs [1]; [14]
  Daily weight gain, 25-OH D3 v. control (δ): 0.05 kg
  Feed: Gain, 25-OH D3 v. control (δ): −0.13
  Final body wt, 25-OH D3 v. control (δ): 5.88 kg
  Initial Body wt, 25-OH D3 v. control (δ): 0.75 kg
  Total feed intake, 25-OH D3 v. control (δ): 0.52 kg
  Total wt gain, 25-OH D3 v. control (δ): 5.12 kg
Pigs [2]; [15]
  Daily wt gain: 0.74 kg
  Feed: Gain: 2.34
  Final body wt: 89.59 kg
  Initial Body wt: 8.44 kg
  Total feed intake: 190.05 kg
  Total wt gain: 81.15 kg
Pigs [2]; [16]
  Daily wt gain, 25-OH D3 v. control (δ): 0.01 kg
  Feed: Gain, 25-OH D3 v. control (δ): −0.06
  Final body wt, 25-OH D3 v. control (δ): 0.98 kg
  Initial Body wt, 25-OH D3 v. control (δ): 0.11 kg
  Total feed intake, 25-OH D3 v. control (δ): -0.89 kg
  Total wt gain, 25-OH D3 v. control (δ): 0.88 kg
Pigs [2]; pigs weaned from sows not fed 25-OH D3
  conversion of feed to weight gain compared with pigs fed without 25-OH D3: more efficiently
Pigs [3]
  weight gain compared with pigs fed 25-OH D3 (Table 1): gain weight slower
Pigs [3]; farm records, n=23 pigs
  body weight average: 80.90 kg
